Data on 10 molecules can be found in patent publication US20110195911A1, “SYNTHETIC ANALOGS OF THE JUXTAMEMBRANE DOMAIN OF IGF1R AND USES THEREOF” (THE UNITED STATES OF AMERICA,AS REPRESENTED BY THE …, priority 2008, published 2011).

Experiment [1] has as its system MCF-7 breast cancer cells. The experiment is described as follows: MTT cell toxicity assay in MCF-7 breast cancer cells. In kind it is cell-based. Particulars: for TGI / GI50: final 0.5% FBS, two days with compound; for TGI: concentration of total growth inhibition (cytostatic); for growth inhibition / potency in MCF-7 cells (in words): comparison with related peptides. As for the experimental part:
Cell Toxicity Assays: MCF-7 (breast cancer), T47D (breast cancer), Colo 205 (colon cancer), JM-1 (rat hepatoma), Sk Me1-2 (melanoma), PLC (human hepatoma), and HepG2 (human hepatoma) cells were obtained from American Type Cell Culture Collection. MCF-7 cells were grown in RPMI medium supplemented with 10% Fetal Bovine Serum. The rest of the cell lines were grown in DMEM medium supplemented with 10% Fetal Bovine Serum.
MTT 43-(4,5-Dimethylthiazol-2-yl)-2,5-diphenyltetrazolium) cell assay was performed using MCF-7 breast cancer cells. For the assay, cells were seeded into 96 well plates in medium containing 1% Fetal Bovine Serum and 100 μL of a cell suspension containing 5000 cells per well. Wells containing medium-only, and wells containing untreated cells, served as controls.
Seeded cells were allowed to attach and grow in the wells for 24 hours. A 5 mM stock solution of each peptide was made by dissolving approximately 1 mg of peptide in appropriate amount of DMSO. 2 mL dilutions were used to make 0.2 μM, 1.0 μM, 5.0 μM, and 10.0 μM concentration solutions of the compounds in serum-free medium. 100 μl, of the resulting 2× solutions were added to the corresponding wells to provide a final FBS concentration of 0.5% and 0.1 μM, 0.5 μM, 2.5 μM, and 5.0 μM dilutions of inhibitors. The cells were incubated with test compounds for two days. The control wells were given 100 μL of medium to ensure maximum similarity to the test wells so that all of the wells had 200 μL of medium during the growth period. An individual plate was made for Time Zero, to which the dye was added at the time of addition of compounds.
An alternative potency assay was used to test compounds in MCF-7 (breast cancer), T47D (breast cancer), Colo 205 (colon cancer), JM-1 (rat hepatoma), Sk MeI-2 (melanoma), PLC (human hepatoma), and HepG2 (human hepatoma) cells. Cells were suspended at a concentration of approximately 5000 cells per 100 μL of suspension in a 5% FBS RPMI medium. The cells were seeded into 96-count wells and incubated over night. After one day's incubation, the 5% FBS medium was aspirated and replaced with 100 μL of no serum RPMI medium containing 1 mg Bovine Serum Albumin (BSA) per 1 mL RPMI. Various concentrations of the test compounds were prepared by dilution in no-serum medium containing 1 mg BSA/mL. 75 μL of the test compound solutions were added to the wells, and the cells were allowed to incubate for 15-20 minutes, after which time 25 μL of human recombinant IGF-1 (Peprotech) solution was added to the wells to attain final concentrations of 10 ng IGF-1/mL medium. The control wells were given 175 μL of no-serum medium in addition to 25 μL of IGF-1 solution. An individual plate was made for time zero, in which the medium was also aspirated and replaced with 175 μL of no-serum medium and 25 μL of IGF-1. 15 μL of MTT dye was added and let incubate for 4 hours, after which time a stop stop solubilization solution was added. The stop solution lysed the cells and released the dye reduced by the remaining living cells. Absorbance of the wells at 544 nm was determined by a FLUOstar/POLARstar Galaxy (BMG Lab Technologies GmbH) microplate reader. The activity was calculated from the data using the formula: 100×[(T−T0)/(C−T0)] for T>T0 and 100×[(T−T0)/T0] for T<T0, wherein T0 corresponds to cell density at the time of drug addition, “T” is the optical density of the test well after a 48-h period of exposure to test drug, and “C” is the control optical density. The GI50 measures the growth inhibitory power of the test agent, and is defined as the concentration of test drug where 100×(T−T0)/(C−T0)=50. The TGI is the concentration of test drug where 100×(T−T0)/(C−T0)=0. Thus, the TGI signifies a cytostatic effect.
(Tetrazolium assays rely on reduction of a dye to a coloured formazan, in cell work by metabolically active cells.)

Experiment [2] addresses Insulin-like growth factor 1 receptor (IGF1R) (UniProt P08069 31-1367, limits assumed). Nature of the experiment: cell-based or functional assay.

Where a SMILES comes first, the peptide text is derived from it. [ ]: non-standard residue; d: D form. The star is where a group is joined. Palmitoyl = CCCCCCCCCCCCCCCC(=O)* Some results are limits rather than exact numbers.

Sequence of Insulin-like growth factor 1 receptor (IGF1R) (P08069 31-1367 limits assumed): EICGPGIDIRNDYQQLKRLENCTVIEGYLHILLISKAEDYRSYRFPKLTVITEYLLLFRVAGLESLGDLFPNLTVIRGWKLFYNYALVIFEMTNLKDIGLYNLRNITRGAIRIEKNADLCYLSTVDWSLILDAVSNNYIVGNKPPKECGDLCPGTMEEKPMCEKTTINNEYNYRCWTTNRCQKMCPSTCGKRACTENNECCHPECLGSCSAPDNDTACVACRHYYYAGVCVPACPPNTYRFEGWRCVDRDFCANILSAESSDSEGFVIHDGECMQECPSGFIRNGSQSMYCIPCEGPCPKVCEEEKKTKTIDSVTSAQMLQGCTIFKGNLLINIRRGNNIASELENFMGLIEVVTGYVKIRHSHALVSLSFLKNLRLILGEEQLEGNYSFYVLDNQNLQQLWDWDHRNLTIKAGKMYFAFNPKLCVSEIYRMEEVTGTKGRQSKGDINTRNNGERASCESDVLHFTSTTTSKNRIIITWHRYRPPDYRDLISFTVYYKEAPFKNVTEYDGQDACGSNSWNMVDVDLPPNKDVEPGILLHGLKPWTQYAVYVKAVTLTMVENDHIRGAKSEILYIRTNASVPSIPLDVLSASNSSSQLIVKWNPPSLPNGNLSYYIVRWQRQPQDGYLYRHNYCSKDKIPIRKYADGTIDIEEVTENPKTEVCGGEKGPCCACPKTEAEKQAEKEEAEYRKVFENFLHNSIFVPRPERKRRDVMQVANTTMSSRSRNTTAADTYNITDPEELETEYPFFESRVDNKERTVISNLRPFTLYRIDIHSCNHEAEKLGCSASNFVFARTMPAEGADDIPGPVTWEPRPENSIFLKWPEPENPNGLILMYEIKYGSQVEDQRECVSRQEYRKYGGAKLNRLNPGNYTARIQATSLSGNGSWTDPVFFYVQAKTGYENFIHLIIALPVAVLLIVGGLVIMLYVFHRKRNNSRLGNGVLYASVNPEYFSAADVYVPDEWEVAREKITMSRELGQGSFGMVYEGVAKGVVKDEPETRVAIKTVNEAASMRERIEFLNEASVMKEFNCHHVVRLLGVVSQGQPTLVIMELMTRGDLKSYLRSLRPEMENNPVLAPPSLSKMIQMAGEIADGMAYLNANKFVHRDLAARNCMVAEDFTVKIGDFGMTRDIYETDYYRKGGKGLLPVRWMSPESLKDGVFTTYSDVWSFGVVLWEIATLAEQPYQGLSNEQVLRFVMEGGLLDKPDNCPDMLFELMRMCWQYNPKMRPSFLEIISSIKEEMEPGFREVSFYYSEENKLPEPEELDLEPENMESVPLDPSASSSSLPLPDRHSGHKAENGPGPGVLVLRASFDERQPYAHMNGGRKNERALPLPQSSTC

One may read the TGI as the concentration at which net growth stops. Regarding `CCCCCCCCCCCCCCCC(=O)N[C@H](Cc1ccc(O)cc1)C(=O)N[C@H](CC(C)C)C(=O)N[C@@H](C(=O)NCC(=O)N[C@H](CC(N)=O)C(=O)NCC(=O)N[C@H](CC(C)C)C(=O)N[C@H](CCCNC(=N)N)C(=O)N[C@H](CO)C(=O)N[C@H](CC(N)=O)C(=O)N[C@H](CC(N)=O)C(=O)N[C@H](CCCNC(=N)N)C(N)=O)C(C)C` [Peptide 22, Pal-YLVGNGLRSNNR-NH2] (Palmitoyl-[dY][dL][dV]G[dN]G[dL][dR][dS][dN][dN][dR]-NH2), in experiment [1] (MCF-7 cells, MTT), the “cell killing activity (in words)” value is “enhanced cell killing activity”, the TGI came to 500 ± 25 nM and the “growth inhibition / potency in MCF-7 cells (in words)” value (shortened to “growth inhibition / potency”) was “equipotent to peptide 18”.

In general, GI50 refers to the concentration that inhibits growth by half. For `CCCCCCCCCCCCCCCC(=O)N[C@@H](CCCNC(=N)N)C(=O)N[C@@H](CCC(N)=O)C(=O)N1CCC[C@H]1C(=O)N[C@@H](CC(=O)O)C(=O)NCC(=O)N1CCC[C@H]1C(=O)N[C@@H](CC(C)C)C(=O)NCC(=O)N1CCC[C@H]1C(=O)N[C@@H](CC(C)C)C(=O)N[C@@H](Cc1ccc(O)cc1)C(N)=O` [IR-2, Pal-RQPDGPLGPLY-NH2] (Palmitoyl-RQPDGPLGPLY-NH2), in experiment [1] (MCF-7 cells, MTT), the GI50 was determined as 60 ± 1 nM, the TGI stood at 400 ± 50 nM and the “growth inhibition / potency” value is recorded as “inhibited growth”.

As to `CCCCCCCCCCCCCCCC(=O)N[C@@H](CC(N)=O)C(=O)N[C@@H](CC(N)=O)C(=O)N[C@@H](CO)C(=O)N[C@@H](CCCNC(=N)N)C(=O)N[C@@H](CC(C)C)C(=O)NCC(=O)N[C@@H](CC(N)=O)C(=O)NCC(=O)N[C@H](C(=O)N[C@@H](CC(C)C)C(=O)N[C@@H](Cc1ccc(O)cc1)C(N)=O)C(C)C` [Peptide 15, Pal-NNSRLGNGVLY-NH2] (Palmitoyl-NNSRLGNGVLY-NH2), in experiment [1] (MCF-7 cells, MTT), the GI50 turned out to be 100 ± 10 nM, the concentration for total growth inhibition (TGI) was 1500 ± 50 nM and the “growth inhibition / potency” value is “gradual reduction in potency”.

Take `CCCCCCCCCCCCCCCC(=O)N[C@@H](CCCCN)C(=O)N[C@@H](CCCNC(=N)N)C(=O)N[C@@H](CC(N)=O)C(=O)N[C@@H](CC(N)=O)C(=O)N[C@@H](CO)C(=O)N[C@@H](CCCNC(=N)N)C(=O)N[C@@H](CC(C)C)C(=O)NCC(=O)N[C@@H](CC(N)=O)C(=O)NCC(=O)N[C@H](C(=O)N[C@@H](CC(C)C)C(=O)N[C@@H](Cc1ccc(O)cc1)C(=O)N[C@@H](C)C(=O)N[C@@H](CO)C(=O)N[C@H](C(=O)N[C@@H](CC(N)=O)C(N)=O)C(C)C)C(C)C` [Peptide 13, Pal-KRNNSRLGNGVLYASVN-NH2] (Palmitoyl-KRNNSRLGNGVLYASVN-NH2): the improvement of potency entry in experiment [1] (MCF-7, N-terminal truncation, relative to peptide 12/3) is on record as “more than ten-fold”. This molecule also yielded an increase in toxicity in experiment [1] (MCF-7, relative to peptide 3) of 12.5 fold. In addition, in experiment [1] (MCF-7 cells, MTT), the GI50 is 80 ± 7 nM and the TGI amounted to 500 ± 80 nM.

For `CCCCCCCCCCCCCCCC(=O)N[C@H](C(=O)N[C@@H](Cc1c[nH]cn1)C(=O)N[C@@H](CCCNC(=N)N)C(=O)N[C@@H](CCCCN)C(=O)N[C@@H](CCCNC(=N)N)C(=O)N[C@@H](CC(N)=O)C(=O)N[C@@H](CC(N)=O)C(=O)N[C@@H](CO)C(=O)N[C@@H](CCCNC(=N)N)C(=O)N[C@@H](CC(C)C)C(=O)NCC(=O)N[C@@H](CC(N)=O)C(=O)NCC(=O)N[C@H](C(=O)N[C@@H](CC(C)C)C(=O)N[C@@H](Cc1ccc(O)cc1)C(=O)N[C@@H](C)C(=O)N[C@@H](CO)C(=O)N[C@H](C(N)=O)C(C)C)C(C)C)C(C)C` [Peptide 6, Pal-VHRKRNNSRLGNGVLYASV-NH2] (Palmitoyl-VHRKRNNSRLGNGVLYASV-NH2), in experiment [1] (MCF-7 cells, MTT), the GI50 turned out to be 250 ± 30 nM and the TGI came out at 1050 ± 100 nM.

`CCCCCCCCCCCCCCCC(=O)N[C@@H](Cc1c[nH]cn1)C(=O)N[C@@H](CCCNC(=N)N)C(=O)N[C@@H](CCCCN)C(=O)N[C@@H](CCCNC(=N)N)C(=O)N[C@@H](CC(N)=O)C(=O)N[C@@H](CC(N)=O)C(=O)N[C@@H](CO)C(=O)N[C@@H](CCCNC(=N)N)C(=O)N[C@@H](CC(C)C)C(=O)NCC(=O)N[C@@H](CC(N)=O)C(=O)NCC(=O)N[C@H](C(=O)N[C@@H](CC(C)C)C(=O)N[C@@H](Cc1ccc(O)cc1)C(=O)N[C@@H](C)C(N)=O)C(C)C` [Peptide 8, Pal-HRKRNNSRLGNGVLYA-NH2] (Palmitoyl-HRKRNNSRLGNGVLYA-NH2): in experiment [1] (MCF-7 cells, MTT), the 50% growth inhibitory concentration (GI50) is 1400 ± 100 nM and the TGI was above 5000 nM.

Regarding `CCCCCCCCCCCCCCCC(=O)N[C@@H](CCCNC(=N)N)C(=O)N[C@@H](CC(N)=O)C(=O)N[C@@H](CC(N)=O)C(=O)N[C@@H](CO)C(=O)N[C@@H](CCCNC(=N)N)C(=O)N[C@@H](CC(C)C)C(=O)NCC(=O)N[C@@H](CC(N)=O)C(=O)NCC(=O)N[C@H](C(=O)N[C@@H](CC(C)C)C(=O)N[C@@H](Cc1ccc(O)cc1)C(=O)N[C@@H](C)C(=O)N[C@@H](CO)C(=O)N[C@H](C(N)=O)C(C)C)C(C)C` [Peptide 35, Pal-RNNSRLGNGVLYASV-NH2] (Palmitoyl-RNNSRLGNGVLYASV-NH2), in experiment [1] (MCF-7 cells, MTT), the GI50 came to 50 ± 1 nM and the TGI stood at 2500 ± 500 nM.

B1: peptide 23 (Pal-HRKRNNSRLGNGVLYASVNP-NH2) (peptide)
peptide: Palmitoyl-HRKRNNSRLGNGVLYASVNP-NH2
SMILES: CCCCCCCCCCCCCCCC(=O)N[C@@H](Cc1c[nH]cn1)C(=O)N[C@@H](CCCNC(=N)N)C(=O)N[C@@H](CCCCN)C(=O)N[C@@H](CCCNC(=N)N)C(=O)N[C@@H](CC(N)=O)C(=O)N[C@@H](CC(N)=O)C(=O)N[C@@H](CO)C(=O)N[C@@H](CCCNC(=N)N)C(=O)N[C@@H](CC(C)C)C(=O)NCC(=O)N[C@@H](CC(N)=O)C(=O)NCC(=O)N[C@H](C(=O)N[C@@H](CC(C)C)C(=O)N[C@@H](Cc1ccc(O)cc1)C(=O)N[C@@H](C)C(=O)N[C@@H](CO)C(=O)N[C@H](C(=O)N[C@@H](CC(N)=O)C(=O)N1CCC[C@H]1C(N)=O)C(C)C)C(C)C
In the case of B1, in experiment [2], the “GI50 (µM), MTT assay, MCF-7 cells” value was found to be 0.1 µM and the “TGI (µM), MTT assay, MCF-7 cells” value was above 5 µM.

B2: peptide 5 (Pal-HRKRNNSRLGNGVLYASV-NH2) (peptide)
peptide: Palmitoyl-HRKRNNSRLGNGVLYASV-NH2
SMILES: CCCCCCCCCCCCCCCC(=O)N[C@@H](Cc1c[nH]cn1)C(=O)N[C@@H](CCCNC(=N)N)C(=O)N[C@@H](CCCCN)C(=O)N[C@@H](CCCNC(=N)N)C(=O)N[C@@H](CC(N)=O)C(=O)N[C@@H](CC(N)=O)C(=O)N[C@@H](CO)C(=O)N[C@@H](CCCNC(=N)N)C(=O)N[C@@H](CC(C)C)C(=O)NCC(=O)N[C@@H](CC(N)=O)C(=O)NCC(=O)N[C@H](C(=O)N[C@@H](CC(C)C)C(=O)N[C@@H](Cc1ccc(O)cc1)C(=O)N[C@@H](C)C(=O)N[C@@H](CO)C(=O)N[C@H](C(N)=O)C(C)C)C(C)C
For the molecule B2, in experiment [2], the “GI50 (µM), MTT assay, MCF-7 cells” value came to 0.45 µM and the “TGI (µM), MTT assay, MCF-7 cells” value is 1.45 µM.

B3: peptide 1 (Pal-HRKRNNSRLGNG-NH2) (peptide)
peptide: Palmitoyl-HRKRNNSRLGNG-NH2
SMILES: CCCCCCCCCCCCCCCC(=O)N[C@@H](Cc1c[nH]cn1)C(=O)N[C@@H](CCCNC(=N)N)C(=O)N[C@@H](CCCCN)C(=O)N[C@@H](CCCNC(=N)N)C(=O)N[C@@H](CC(N)=O)C(=O)N[C@@H](CC(N)=O)C(=O)N[C@@H](CO)C(=O)N[C@@H](CCCNC(=N)N)C(=O)N[C@@H](CC(C)C)C(=O)NCC(=O)N[C@@H](CC(N)=O)C(=O)NCC(N)=O
B3: in experiment [2], the “GI50 (µM), MTT assay, MCF-7 cells” value worked out at 1.8 µM and the “TGI (µM), MTT assay, MCF-7 cells” value is above 5 µM.
